Measured values: patent publication US20220016049A1, “TISSUE REPAIR” (Regenall Limited, priority 2019, published 2022)

Assays:
[1] = horse; cited from earlier work
Spinal cord injury = assay: Patient-reported outcome measure, spinal cord injury, recovery following treatment with vitamin A; type: in vivo, human
Description: Patient-Reported Outcome Measure
Spinal Cord Injury—Recovery Following Treatment with Vitamin A
Vitamin A 50,000 IU (from Retinyl palmitate and fish liver oil)
Starting in October 2018. For three months taking vitamin A 10,000×3. Increasing in end January 2019 10,000×5.
Vitamin A (from cod liver oil and vitamin A palmitate)
For 3 months 3 tablets a day and for 3 months 5 tablets a day
21 years later in February 2019
I take 50,000 IU in one administration in the morning daily
Continuing: Almost 2 months

Tendon injury = Tendon injury in a horse, recovery following treatment with vitamin A (case report); type: in vivo; settings: retinyl palmitate oral 750,000 IU twice daily, at least 4 weeks
Description: Tendon Injury—Recovery Following Treatment with Vitamin A [table] [table] Treatment with Vitamin A was initiated approximately 20 days after the initial injury. Retinyl palmitate (93.8% Retinol Equivalent) Oral 750,000 IU […] Continuing (at least 4 weeks) Functional recovery has been good considering the severity of the lesion. […] It is not uncommon for such lesions to take between 12 to 18 months to heal.

Vitamin A
Vitamin A toxicity level [1]: around 1,000 IU/kg body weight (BW)/day
Pain reduction (right lower back) (Spinal cord injury; Human Subject 1, injury 1963 (T4), oral 50,000 IU once daily, 3 months, started 56 years after injury): 10-15%
Duration of pain (Spinal cord injury; Human Subject 1, oral 50,000 IU once daily, 3 months): much less
First recovery found (walking control, balance) (Spinal cord injury; Human Subject 2, spinal stenosis, both legs paralyzed, oral 30,000 IU per day for 3 months from October 2018): more walking control and balance
Strength, balance and movement control (Spinal cord injury; Human Subject 2, March 2019, oral 50,000 IU per day from end of January 2019): much stronger, more balanced, more movement control
Walking without any support on even level (Spinal cord injury; Human Subject 2, beginning of April 2019, oral 50,000 IU per day): 30-50 meters
Improvement of pain level (Spinal cord injury; Human Subject 3, disc/nerve pain around knee, oral 50,000 IU daily, 4-5 months): 80%
Neck flexibility (Spinal cord injury; Human Subject 4, injury at C4/C5 in 1998, oral 50,000 IU daily, almost 2 months, started 21 years after injury): much more flexible
Neck aching (Spinal cord injury; Human Subject 4, oral 50,000 IU daily, almost 2 months): largely disappeared
Functional recovery (Tendon injury; Horse subject 1 (polo pony, 14 years), started approximately 20 days after injury): good
Size of the lesion (ultrasonography) (Tendon injury; Horse subject 1): good reduction in the size of the lesion
